This is an account of results in article PMC5964550 (Contrast Media & Molecular Imaging, 2018).

Each structure is given as a SMILES string.

A short description of series [1]: [11C]metoclopramide plasma kinetics and metabolism in rats (radio-HPLC). It is filed as in vivo. The settings on record: rat. From the text:
[…]. […] […].

For series [2] the following is noted: rat, iv.
For series [3] the following is noted: cited from earlier work.
The subject of series [4] is human P-gp. The arrangement: method as in PMID 17962372, PMID 15502009. The note with it: cited from earlier work.
Series [5] has as its system rodent P-gp. The arrangement: method as in PMID 17962372, PMID 15502009. The settings on record: cited from earlier work.
The test system of series [6] is P-gp. The settings on record: mice, cited from earlier work.
Series [7] concerns cytochrome P450 2D6 (CYP2D6). The note with it: cited from earlier work.
In series [8] the test system is OATP2B1 (SLCO2B1). Also noted: method as in earlier work. The note with it: in vitro; cited from earlier work.
Series [9] relates to OATP1B1 (SLCO1B1). Also noted: method as in earlier work. The settings on record: in vitro; cited from earlier work.
Series [10] concerns OATP1B3 (SLCO1B3). Also noted: method as in earlier work. The note with it: in vitro; cited from earlier work.
The test system of series [11] is P-gp at the canalicular membrane. Also noted: method as in PMID 12576431. The note with it: humans; cited from earlier work.

In the case of `CCN(CC)CCNC(=O)c1cc(Cl)c(N)cc1O[11CH3]` [[^11C]metoclopramide], in [1] (in vivo), the “increase in AUCplasma, pharmacologic dose vs tracer dose” value came out at 2.1 fold. Besides, the “proportion of parent [11C]metoclopramide in plasma, pharmacologic dose vs tracer dose” value in [1] (metoclopramide 3 mg/kg, calculated from ref 14) is reported as “higher”. The “impact of P-gp inhibition on plasma clearance and metabolism” value in series [1] (not told, 8 mg/kg) is “did not impact”. In addition, the “AUCliver (area under the time-activity curve of radioactivity in the liver, 0 to 30 min)” value in [2] (male, Wistar, in vivo, 3 mg/kg) is reported as 42.9 ± 13.8 SUV·min. Also, the “effect of P-gp inhibition on liver AUC” value in series [2] (not told, 8 mg/kg) is listed as “did not significantly impact”.
Consider `CCN(CC)CCNC(=O)c1cc(Cl)c(N)cc1OC` [metoclopramide], for which, in series [3] (after intravenous administration), the “excreted unchanged in urine” value was 19%. For the same compound, in series [3] (liver cirrhosis), the “lower plasma clearance in hepatic impairment (liver cirrhosis)” value is on record as 50%. In addition, the “substrate of human P-gp” value in series [4] was “substrate”. The “substrate of rodent P-gp” value in series [5] is “substrate”. Besides, the “influence of P-gp deficiency on metoclopramide PK” value in series [6] (3 mg/kg, over 5 hours) is “no influence”. Also, in [6], the “effect of P-gp deficiency on brain distribution” value is “enhance” and the “impact of P-gp deficiency on plasma pharmacokinetics” value was “no or negligible impact”. Besides, the “substrate of CYP2D6” value in series [7] is given as “substrate”.
On to `COc1cc2c(cc1OC)CN(CCc1ccc(NC(=O)c3cc(OC)c(OC)cc3NC(=O)c3cnc4ccccc4c3)cc1)CC2` [tariquidar], for which the “inhibitor of OATP2B1” value in series [8] is recorded as “inhibitor”. Further, the “inhibitor of OATP1B1” value in [9] is on record as “not”. Besides, in series [10], the “inhibitor of OATP1B3” value is “not”. The “effect on liver exposure to [99mTc]sestamibi” value in [11] is on record as “enhance”.
